Measured values taken from patent US10662169B2, “Catechol derivative and pharmaceutical composition comprising the same” (AUTOPHAGYSCIENCES INC., priority 2015, dated 2020).

Legend:
[1] = tested on: acute liver injury induced by carbon tetrachloride; test: Model of acute liver injury induced by carbon tetrachloride; type: in vivo, C57BL/6 mice; conditions: 50 mg/kg orally three times every 12 hours, then CCl4 5 mL/kg i.p.; autopsy 24 hours later; FIG. 4
Experimental: Attempts were made to confirm the inhibitory effect of autophagy activator on liver injury in an animal model of induced liver fibrosis due to acute liver injury. In order to confirm the effect of inhibiting acute liver injury, carbon tetrachloride (CCl4) was administered to C57BL/6 mice to induce acute liver injury, and then the compound according to the present invention was administered. It was then confirmed whether liver injuries were inhibited. Five-week-old female C57BL/6 mice were introduced and acclimated for one week, and then divided into six groups respectively; a normal control group, a group to which carbon tetrachloride was administered, and groups to which the compounds according to the present invention (Examples 1, 2, 5, and 7) were administered. Each of the compounds according to the present invention was dissolved in corn oil and administered orally three times at a dose of 50 mg/kg (body weight) every 12 hours. 30 Minutes after final oral administration, carbon tetrachloride was intraperitoneally administered at a dose of 5 mL/kg (body weight) and then autopsied 24 hours later top remove a sample of liver tissue under autopsy and fix it, thereby preparing a tissue specimen. After preparation of tissue specimen slides, H & E staining was performed and liver injuries were confirmed with a microscope.

[2] = tested on: liver fibrosis induced by thioacetamide; test: Model of liver fibrosis induced by thioacetamide (TAA); type: in vivo, C57BL/6 mice; conditions: TAA 200 mg/kg i.p. three times a week for 6 weeks; compound 50 mg/kg orally once a day for 8 days; FIG. 7
Experimental: In order to confirm the effect of inhibiting liver fibrosis caused by chronic liver injury, thioacetamide (TAA) was administered to C57BL/6 mice to induce chronic liver injury, thereby inducing liver fibrosis, and then the compounds according to the present invention were administered. It was then confirmed whether chronic liver injuries were inhibited. Five-week-old female C57BL/6 mice were introduced and acclimated for one week, and then divided into six groups respectively; a normal control group, a group to which thioacetamide was administered, and groups to which the compounds according to the present invention (Examples 2, 5 and 7) were administered. Thioacetamide was dissolved in phosphate-buffered physiological saline and administered intraperitoneally at a dose of 200 mg/kg (body weight) three times a week, for a total of 6 weeks. Three compounds according to the present invention was dissolved in corn oil […] and administered orally at a dose of 50 mg/kg (body weight) once a day for a total of 8 days. Twenty-four hours after the final oral administration, an autopsy was performed to remove a sample of liver tissue and fix it, thus preparing a tissue specimen. After preparation of tissue specimen slides. H & E staining was performed, and liver tissue injury as well as inflammatory cell infiltration in liver tissue were confirmed by microscopy. […]

[3] = tested on: liver fibrosis induced by carbon tetrachloride; test: Model of liver fibrosis induced by carbon tetrachloride (chronic); type: in vivo, C57BL/6 mice; conditions: for liver fibrosis, Masson's Trichrome staining: CCl4 0.8 ml/kg i.p., FIG. 10
Experimental: In order to confirm the effect of inhibiting liver fibrosis caused by chronic liver injury, carbon tetrachloride was administered to C57BL/6 mice to induce chronic liver injury, thereby inducing liver fibrosis, and then the compounds according to the present invention were administered. It was then confirmed whether chronic liver injuries were inhibited. Five-week-old female C57BL/6 mice were introduced and acclimated for one week, and then divided into six groups respectively; a normal control group, a group to which carbon tetrachloride was administered, and groups to which the compounds according to the present invention (Examples 1 and 5) were administered. Carbon tetrachloride was dissolved in corn oil and administered intraperitoneally at a dose of 0.8 ml/kg (body weight) twice a day, for a total of 8 days. Twenty-four hours after the final oral administration, an autopsy was performed to remove a sample of liver tissue and fix it, thus preparing a tissue specimen. After preparation of tissue specimen slides, H & E staining was performed, and liver tissue injury as well as inflammatory cell infiltration in liver tissue were confirmed by microscopy. In addition, Masson's Trichrome staining was performed, and collagen deposition in the liver tissue was confirmed by microscope.

[4] = tested on: LC3-II in primary hepatocytes; test: Autophagy activation: LC3-II Western immunoblotting in primary hepatocytes, ischemia-reperfusion model; type: cell-based, C57BL/6 mice; conditions: FIG. 1, FIG. 2
Experimental: Primary hepatocyte was isolated from male C57BL/6 mice by a collagenase perfusion method which is a known method (Gastroenterology 2011, 141, 2188). Survival rate of the isolated cells was measured by trypan blue exclusion method. Autophagy was induced by ischemia-reperfusion method (Gastroenterology 2011, 141, 2188).
Specifically, in order to induce ischemia, hepatocytes were incubated at 37° C. in Krebs-Ringer-HEPES (KRH0) buffer (pH 6.2) in an anaerobic chamber for 2 hours. The respective hepatocytes were treated with DMSO, the compound prepared in Examples described above, or Rapamycin as a control substance, and then KRH buffer solution at pH 7.4 was treated under aerobic conditions for 1 hour to induce reperfusion. […] The amount of protein was measured with bovine serum albumin as a protein standard using Bio-Rad Protein Assay Kit (Cat No. 500-0002). […] Then, bands were measured using ECL (Enhanced Chemiluminescence, Thermo Scientific, Cat No. 34080). […]
The amount of LC3-II increased by the compound treatment was quantified by measuring the band density, and then compared with the amount of LC3-II increased by the treatment of Rapamycin used as a control substance, and the comparison values are shown in Table 1.

mTOR = mTOR enzyme activity: p-mTOR (Ser 2448) Western immunoblotting in hepatocyte ischemia-reperfusion model; type: cell-based, C57BL/6 mice; conditions: hepatocytes, FIG. 3
Experimental: Western immunoblotting was performed using the cell-disrupted liquid obtained in Experimental Example 1. The PVDF membrane obtained from electrophoresis and electroblotting was placed in a TBS-tween solution containing an antibody against mTOR or p-mTOR (Ser 2448) proteins (Cell Signaling), allowed to stand at 4° C. for 12 hours, and then labeled with a secondary antibody labeled with HRP (Horseradish Peroxidase, Sigma Co., Cat No. P0889). Then, bands were measured using ECL (Enhanced Chemiluminescence, Thermo Scientific, Cat No. 34080).
The measurement results are shown in FIG. 3. mTOR is known to be one of the major proteins regulating autophagy. mTOR serves to inhibit autophagy at a quiescent state, whereas phosphorylation at serine 2448-position inhibits the function of mTOR, resulting in activation of autophagy.

[5] = tested on: liver fibrosis induced by bile duct ligation; test: Model of liver fibrosis induced by bile duct ligation (BDL); type: in vivo, Sprague Dawley (SD) rats; conditions: BDL rats; 12.5, 25 and 50 mg/kg orally once a day for 14 days; FIG. 13
Experimental: In order to confirm the effect of inhibiting liver fibrosis caused by chronic liver injury, bile duct ligation (BDL) was performed in Sprague Dawley (SD) rats to induce chronic liver injury, thereby inducing liver fibrosis, and then the compounds according to the present invention were administered. It was then confirmed whether chronic liver injuries were inhibited.
Seven-week-old female SD rats were introduced and acclimated for one week, and then divided into five groups respectively; a control group, a bile duct ligation surgery group, and groups to which the compound according to the present invention (Example 15) was administered at three doses (12.5, 25 and 50 mg/kg body weight). In the control group, the bile duct was not exposed or ligated after laparotomy, and the other groups performed bile duct ligation surgery. One week after bile duct ligation, the compound according to the present invention (Example 1) was dissolved in corn oil and administered orally for each dose once a day for a total of 14 days. […] In addition, a part of the removed liver (10 mg) was decomposed to perform a quantitative experiment of hydroxyproline which is a major component of collagen, and the amount of collagen deposited was quantified, thereby confirming the effects of the compound according to the present invention.

SMILES	liver injury, H & E staining [1]	liver fibrosis (collagen deposition), Masson's Trichrome staining [2]	liver fibrosis, Masson's Trichrome staining [3]	increase in LC3-II (autophagy induction), Western immunoblotting [4]	phosphorylation of mTOR at serine 2448 position (mTOR)	collagen deposition, quantitative experiment of hydroxyproline in liver tissue [5]	collagen deposition, Example 1 compared with Example 5 ([3]; CCl4 fibrosis model, Masson's Trichrome staining)
COc1ccc(-c2ccc(C(=O)Nc3ccccc3)s2)cc1OC [Example 7, 5-(3,4-dimethoxyphenyl)-N-phenylthiophene-2-carboxamide]	recovery effect of liver injury was relatively small	–	–	–	–	–	–
CC(C)CNC(=O)c1ccc(-c2ccc3c(c2)OCO3)s1 [Example 5, 5-(benzo[d][1,3]dioxol-5-yl)-N-isobutylthiophene-2-carboxamide]	liver injury was clearly recovered	fibrosis was clearly alleviated	fibrosis was alleviated	significant increase in autophagy induction	–	–	–
CC(C)NC(=O)c1ccc(-c2ccc3c(c2)OCO3)s1 [Example 2, 5-(benzo[d][1,3]dioxol-5-yl)-N-isopropylthiophene-2-carboxamide]	recovery effect of liver injury was relatively small	fibrosis was clearly alleviated	–	–	–	–	–
COc1ccc(-c2ccc(C(=O)NC(C)C)s2)cc1OC [Example 1, 5-(3,4-dimethoxyphenyl)-N-isopropylthiophene-2-carboxamide]	liver injury was clearly recovered	–	fibrosis was alleviated	significant increase in autophagy induction	significantly inhibited	the smaller the collagen deposition	collagen deposition was less
